Counter-ions that a name gives are not always drawn.

In assay [1] the target is T1, human JAK3 kinase domain (JH1) (Homo sapiens, UniProt P52333).
T1 construct: recombinantly generated catalytic kinase (also known as JH1) domain of human JAK1, JAK2, JAK3 and TYK2
The assay can be described thus: JH1 biochemical assay for JAK3 (ADP-Glo kinase assay, recombinant JH1 catalytic domain, JAK3-974 peptide, 4 μM ATP). An outline of the steps:
(§1)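 Reactions contain 50 μM peptide and run 100 minutes, with enzyme at 4, 0.2, 0.3 and 2 nM for JAK1, JAK2, JAK3 and TYK2. Generated ADP is read by luminescence; IC50 derives from normalized dose-response curves.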
Background: ADP-Glo turns the ADP formed in a reaction into a luminescent signal.

The target in assay [2] is T2, human TYK2 kinase domain (JH1) (Homo sapiens, UniProt P29597).
T2 construct: recombinantly generated catalytic kinase (also known as JH1) domain of human JAK1, JAK2, JAK3 and TYK2
T2 sequence (P29597 897-1176 limits assumed): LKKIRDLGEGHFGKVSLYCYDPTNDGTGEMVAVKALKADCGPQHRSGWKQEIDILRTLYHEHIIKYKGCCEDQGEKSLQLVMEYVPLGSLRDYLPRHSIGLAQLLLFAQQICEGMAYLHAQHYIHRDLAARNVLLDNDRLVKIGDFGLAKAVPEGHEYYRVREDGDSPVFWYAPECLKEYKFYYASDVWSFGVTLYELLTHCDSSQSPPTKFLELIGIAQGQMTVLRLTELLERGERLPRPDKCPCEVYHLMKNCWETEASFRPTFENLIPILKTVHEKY
The assay can be described thus: JH1 biochemical assay for TYK2 (ADP-Glo kinase assay, recombinant JH1 catalytic domain, JAK3-974 peptide, 10 μM ATP). A digest of the protocol: as §1

Assay [3] deals with T3, human JAK1 kinase domain (JH1) (Homo sapiens, UniProt P23458).
T3 construct: recombinantly generated catalytic kinase (also known as JH1) domain of human JAK1, JAK2, JAK3 and TYK2
T3 sequence (P23458 875-1153 limits assumed): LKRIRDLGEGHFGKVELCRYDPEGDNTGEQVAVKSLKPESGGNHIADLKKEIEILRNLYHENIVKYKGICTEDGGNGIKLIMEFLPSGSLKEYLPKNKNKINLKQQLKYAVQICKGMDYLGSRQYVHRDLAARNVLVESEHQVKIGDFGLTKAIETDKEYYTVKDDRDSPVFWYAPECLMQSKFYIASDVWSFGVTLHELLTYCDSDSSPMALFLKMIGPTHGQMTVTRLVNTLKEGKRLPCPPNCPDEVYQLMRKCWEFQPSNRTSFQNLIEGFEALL
The assay can be described thus: JH1 biochemical assay for JAK1 (ADP-Glo kinase assay, recombinant JH1 catalytic domain, JAK3-342 peptide, 35 μM ATP). A digest of the protocol: as §1

Assay [4] deals with T4, human JAK2 kinase domain (JH1) (Homo sapiens, UniProt O60674).
T4 construct: recombinantly generated catalytic kinase (also known as JH1) domain of human JAK1, JAK2, JAK3 and TYK2
T4 sequence (O60674 849-1124 limits assumed): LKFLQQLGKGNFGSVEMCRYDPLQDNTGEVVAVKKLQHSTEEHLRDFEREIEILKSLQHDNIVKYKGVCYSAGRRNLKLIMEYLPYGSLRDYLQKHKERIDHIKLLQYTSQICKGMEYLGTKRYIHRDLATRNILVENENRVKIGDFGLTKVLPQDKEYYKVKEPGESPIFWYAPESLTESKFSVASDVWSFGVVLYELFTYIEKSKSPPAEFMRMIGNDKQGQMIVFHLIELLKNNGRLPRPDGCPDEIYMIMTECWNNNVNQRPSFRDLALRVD
Nature of the assay: JH1 biochemical assay for JAK2 (ADP-Glo kinase assay, recombinant JH1 catalytic domain, JAK3-974 peptide, 15 μM ATP). A digest of the protocol:
as §1

T1 sequence (P52333 822-1111 limits assumed): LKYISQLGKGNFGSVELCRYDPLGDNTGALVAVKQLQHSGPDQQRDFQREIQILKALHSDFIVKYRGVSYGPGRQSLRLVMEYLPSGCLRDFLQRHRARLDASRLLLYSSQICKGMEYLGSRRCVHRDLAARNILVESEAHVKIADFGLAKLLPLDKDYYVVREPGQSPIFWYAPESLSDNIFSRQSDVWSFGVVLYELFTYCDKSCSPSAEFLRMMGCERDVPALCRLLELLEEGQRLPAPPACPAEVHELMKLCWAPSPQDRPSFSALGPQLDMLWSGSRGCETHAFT

On to `Cc1nc(-c2cc3c(N4C[C@@H](C)[C@@](C#N)(C5CC5)C4=O)ccnn3c2)ccc1F` [Example 147, (3R,4S)-3-cyclopropyl-1-(6-(5-fluoro-6-methylpyridin-2-yl)pyrrolo[1,2-b]pyridazin-4-yl)-4-methyl-2-oxopyrrolidine-3-carbonitrile trifluoroacetate], for which the IC50 fell in the range of 0.1 to 1 µM in assay [1] (JH1 kinase domain, ADP-Glo); 0.005 to 0.02 µM in assay [2] (JH1 kinase domain, ADP-Glo); 0.1 to 1 µM in assay [3] (JH1 kinase domain, ADP-Glo); 0.1 to 1 µM in assay [4] (JH1 kinase domain, ADP-Glo).
As to `C[C@@H]1CN(c2nc(-c3cccnc3F)cn3nccc23)C(=O)[C@]1(C#N)C1CC1` [Example 226, (3R,4S)-3-cyclopropyl-1-(6-(2-fluoropyridin-3-yl)pyrazolo[1,5-a]pyrazin-4-yl)-4-methyl-2-oxopyrrolidine-3-carbonitrile trifluoroacetate], the IC50 was over 10 µM in assay [1] (JAK3 JH1, ADP-Glo); over 0.1 µM in assay [2] (TYK2 JH1, ADP-Glo); 5 to 10 µM in assay [3] (JAK1 JH1, ADP-Glo); over 10 µM in assay [4] (JAK2 JH1, ADP-Glo).
As to `Cn1cc(-c2cc3c(N4CCC(C#N)C4=O)ccnn3c2)cn1` (stereo not drawn) [Example 7, 1-(6-(1-methyl-1H-pyrazol-4-yl)pyrrolo[1,2-b]pyridazin-4-yl)-2-oxopyrrolidine-3-carbonitrile], the IC50 was 5 to 10 µM in assay [1] (JH1 kinase domain, ADP-Glo); over 0.1 µM in assay [2] (JH1 kinase domain, ADP-Glo); over 10 µM in assay [3] (JH1 kinase domain, ADP-Glo); 5 to 10 µM in assay [4] (JH1 kinase domain, ADP-Glo).
Turning to `C[C@H]1C[C@](C#N)(C2CC2)C(=O)N1c1ccnn2cc(-c3cnn(C)c3)cc12` [Example 30, (3R,5S)-3-cyclopropyl-5-methyl-1-(6-(1-methyl-1H-pyrazol-4-yl)pyrrolo[1,2-b]pyridazin-4-yl)-2-oxopyrrolidine-3-carbonitrile], the IC50 in assay [1] (JH1 kinase domain, ADP-Glo) was over 10 µM; in assay [2] (JH1 kinase domain, ADP-Glo), over 0.1 µM; in assay [3] (JH1 kinase domain, ADP-Glo), over 10 µM; in assay [4] (JH1 kinase domain, ADP-Glo), over 10 µM.
With `CC[C@H]1CN(c2ccnn3cc(-c4cnn(C)c4)cc23)C(=O)[C@]1(C#N)C1CC1` [Example 24, (3R,4R)-3-cyclopropyl-4-ethyl-1-(6-(1-methyl-1H-pyrazol-4-yl)pyrrolo[1,2-b]pyridazin-4-yl)-2-oxopyrrolidine-3-carbonitrile], the IC50 in assay [1] (JH1 kinase domain, ADP-Glo) is over 10 µM; in assay [2] (JH1 kinase domain, ADP-Glo), over 0.1 µM; in assay [3] (JH1 kinase domain, ADP-Glo) it was 5 to 10 µM; in assay [4] (JH1 kinase domain, ADP-Glo), 5 to 10 µM.
On to `COc1cc(-c2cc3c(N4C[C@@H](C)[C@@](C#N)(C5CC5)C4=O)ccnn3c2)c(F)cn1` [Example 94, (3R,4S)-3-cyclopropyl-1-(6-(5-fluoro-2-methoxypyridin-4-yl)pyrrolo[1,2-b]pyridazin-4-yl)-4-methyl-2-oxopyrrolidine-3-carbonitrile], for which the IC50 in assay [1] (JH1 kinase domain, ADP-Glo) is over 10 µM; in assay [2] (JH1 kinase domain, ADP-Glo), 0.02 to 0.05 µM; in assay [3] (JH1 kinase domain, ADP-Glo), 1 to 5 µM; in assay [4] (JH1 kinase domain, ADP-Glo), over 10 µM.
Consider `CC[C@@H]1C[C@](C#N)(C2CC2)C(=O)N1c1ccnn2cc(-c3cnn(C)c3)cc12` [Example 33, (3R,5R)-3-cyclopropyl-5-ethyl-1-(6-(1-methyl-1H-pyrazol-4-yl)pyrrolo[1,2-b]pyridazin-4-yl)-2-oxopyrrolidine-3-carbonitrile], for which the IC50 is 5 to 10 µM in assay [1] (JH1 kinase domain, ADP-Glo); over 0.1 µM in assay [2] (JH1 kinase domain, ADP-Glo); 5 to 10 µM in assay [3] (JH1 kinase domain, ADP-Glo); 1 to 5 µM in assay [4] (JH1 kinase domain, ADP-Glo).
With `C[C@@H]1CN(c2nc(-c3cccc4cnn(C)c34)cn3nccc23)C(=O)[C@]1(C#N)C1CC1` [Example 242, (3R,4S)-3-cyclopropyl-4-methyl-1-(6-(1-methyl-1H-indazol-7-yl)pyrazolo[1,5-a]pyrazin-4-yl)-2-oxopyrrolidine-3-carbonitrile], the IC50 in assay [1] (JAK3 JH1, ADP-Glo) was over 10 µM; in assay [2] (TYK2 JH1, ADP-Glo) it was over 0.1 µM; in assay [3] (JAK1 JH1, ADP-Glo) it was over 10 µM; in assay [4] (JAK2 JH1, ADP-Glo), over 10 µM.
`C[C@@H]1C[C@@](C#N)(C2CC2)C(=O)N1c1ccnn2cc(-c3cnn(C)c3)cc12` [Example 17, (3S,5R)-3-cyclopropyl-5-methyl-1-(6-(1-methyl-1H-pyrazol-4-yl)pyrrolo[1,2-b]pyridazin-4-yl)-2-oxopyrrolidine-3-carbonitrile]: the IC50 in assay [1] (JH1 kinase domain, ADP-Glo) was 5 to 10 µM; in assay [2] (JH1 kinase domain, ADP-Glo), over 0.1 µM; in assay [3] (JH1 kinase domain, ADP-Glo), 1 to 5 µM; in assay [4] (JH1 kinase domain, ADP-Glo) it was 0.1 to 1 µM.

The term IC50 denotes the concentration that inhibits the measured activity by half.

The record behind these values is patent US20260297085A1, “1 H-PYRROLO[2,3-B]PYRIDIN-4-YL]-2-OXOPYRROLIDINE-3-CARBONITRILE DERIVATIVES AS TYROSINE KINASE 2 (TYK2) INHIBITORS FOR THE TREATMENT OF INFLAMMATORY DISEASES” (BIOGEN MA INC., priority 2023, published 2026).
